Here are results for four compounds from ChEMBL document CHEMBL1139487, “Discovery of corticotropin releasing factor 2 receptor selective sauvagine analogues for treatment of skeletal muscle atrophy” (J Med Chem, 2005).

Square brackets hold non-standard residues; d marks the D form. Peptide text beside a SMILES is read from it. 2Nal = N[C@@H](Cc1ccc2ccccc2c1)C(=O)O; pGlu = O=C1CC[C@@H](C(=O)O)N1 Bounds are passed on as bounds.

The test system of assay [1] is Mus musculus. Description: In vivo percentage inhibition against casting induced tibialis anterior mass loss in mouse at a dosage of 10 ug/kg/day. The assay is classed as functional.
Assay [2] deals with Mus musculus. Description: In vivo percentage inhibition against casting induced tibialis anterior mass loss in mouse at a dosage of 30 ug/kg/day. The assay is classed as functional.
For assay [3], the system named is Mus musculus. Description: In vivo percentage inhibition against casting induced tibialis anterior mass loss in mouse at a dosage of 100 ug/kg/day. The assay is classed as functional.
In assay [4] the target is T1, Corticotropin-releasing factor receptor 1 (Mus musculus, UniProt P35347).
T1 sequence (P35347 whole entry): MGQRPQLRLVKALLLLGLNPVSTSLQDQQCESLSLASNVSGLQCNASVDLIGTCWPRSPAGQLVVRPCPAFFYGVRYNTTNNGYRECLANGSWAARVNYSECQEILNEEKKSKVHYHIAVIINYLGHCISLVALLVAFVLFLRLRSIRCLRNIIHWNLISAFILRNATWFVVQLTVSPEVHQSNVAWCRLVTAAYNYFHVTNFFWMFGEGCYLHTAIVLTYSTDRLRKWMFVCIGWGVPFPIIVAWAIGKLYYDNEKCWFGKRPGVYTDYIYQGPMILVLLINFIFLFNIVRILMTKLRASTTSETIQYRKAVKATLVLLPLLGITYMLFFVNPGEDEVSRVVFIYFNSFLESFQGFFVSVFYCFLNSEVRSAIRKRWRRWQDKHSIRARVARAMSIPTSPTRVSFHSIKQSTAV
Description: In vitro effective concentration for mouse corticotropin releasing factor 1 receptor.

Assay [5] has as its target Corticotropin-releasing factor receptor 2 (Mus musculus, UniProt Q60748). The experiment in a line: In vitro effective concentration for mouse corticotropin releasing factor 2 receptor.
Assay [6] has as its target T2, Corticotropin-releasing factor receptor 1 (Mus musculus) (UniProt P35347).
T2 sequence (whole entry): T1 sequence (P35347 whole entry)
Description: In vitro agonistic activity against mouse corticotropin releasing factor 1 receptor. Type of assay: functional.

In assay [7] the target is Corticotropin-releasing factor receptor 2 (Mus musculus) (UniProt Q60748). The experiment in a line: In vitro agonistic activity against mouse corticotropin releasing factor 2 receptor. Type of assay: functional.
For assay [8], the species on record is Mus musculus. Description: Selectivity ratio of EC50s for mouse corticotropin releasing factor receptors 1 and 2.

Chain of Corticotropin-releasing factor receptor 2 (Q60748 whole entry): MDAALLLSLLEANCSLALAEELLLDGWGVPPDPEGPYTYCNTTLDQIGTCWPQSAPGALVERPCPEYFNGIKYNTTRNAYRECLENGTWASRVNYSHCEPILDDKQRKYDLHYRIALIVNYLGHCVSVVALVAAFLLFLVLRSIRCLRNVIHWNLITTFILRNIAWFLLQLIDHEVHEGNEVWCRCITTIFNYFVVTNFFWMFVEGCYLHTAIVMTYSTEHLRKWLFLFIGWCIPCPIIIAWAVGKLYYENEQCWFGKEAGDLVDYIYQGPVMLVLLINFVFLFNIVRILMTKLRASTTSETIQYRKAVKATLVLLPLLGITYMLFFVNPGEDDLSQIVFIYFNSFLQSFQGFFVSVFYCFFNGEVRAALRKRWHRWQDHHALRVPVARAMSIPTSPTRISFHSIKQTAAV
Chain of Corticotropin-releasing factor receptor 2 (Mus musculus) (Q60748 whole entry): as above

What is called inhibition in vivo is the drop in the measured response relative to a control, in per cent. A lower inhibition in vivo goes with a weak effect. A word on the EC50: it is the concentration that produces a half-maximal response. As usually defined, the Emax is the maximal effect, on the per cent scale that the assay sets. With `CC[C@H](C)[C@H](NC(=O)[C@@H](NC(=O)[C@H](CC(=O)O)NC(=O)[C@H](CC(C)C)NC(=O)[C@H](CC(C)C)NC(=O)[C@H](CC(C)C)NC(=O)[C@H](CCCN=C(N)N)NC(=O)[C@H](CC(N)=O)NC(=O)[C@H](CC(N)=O)NC(=O)[C@H](C)NC(=O)[C@H](C)NC(=O)[C@H](CCC(N)=O)NC(=O)[C@H](CCC(N)=O)NC(=O)[C@H](CCCCN)NC(=O)[C@H](CCC(=O)O)NC(=O)[C@H](CCCCN)NC(=O)[C@H](CCC(=O)O)NC(=O)[C@H](CCC(N)=O)NC(=O)[C@H](CCCCN)NC(=O)[C@H](CCC(=O)O)NC(=O)[C@@H](NC(=O)[C@H](CCC(=O)O)NC(=O)[C@@H](NC(=O)[C@H](CCSC)NC(=O)[C@H](CCCCN)NC(=O)[C@H](CCCN=C(N)N)NC(=O)[C@H](CC(C)C)NC(=O)[C@H](Cc1ccc2ccccc2c1)NC(=O)[C@H](Cc1c[nH]c2ccccc12)NC(=O)[C@H](CC(C)C)NC(=O)[C@@H]1CCCN1C(=O)[C@H](CC(C)C)NC(=O)[C@H](CC(=O)O)NC(=O)[C@@H](NC(=O)[C@H](CO)NC(=O)[C@@H](NC(=O)[C@@H]1CCCN1C(=O)[C@@H]1CCCN1C(=O)CNC(=O)[C@@H]1CCC(=O)N1)[C@@H](C)CC)[C@@H](C)CC)[C@@H](C)CC)[C@@H](C)CC)[C@@H](C)O)C(=O)O` ([pGlu]GPPISIDLPLW[2Nal]LRKMIEIEKQEKEKQQAANNRLLLDTI-OH), the inhibition in vivo at 0.01 mg/kg/day in assay [1] was 53%. For the same compound, in assay [2], the inhibition in vivo at 0.03 mg/kg/day is 45%. For the same compound, in assay [3], the inhibition in vivo at 0.1 mg/kg/day came out at 79%. For the same compound, the results for the concentration for a half-maximal effect (EC50) in assay [4] and in assay [5] were 0.0634 µM and 0.0033 µM, respectively. The Emax in assay [6] came out at 100%; in assay [7] it was 73%. In addition, in assay [8], the Selectivity worked out at 19.

For `CC[C@H](C)[C@H](NC(=O)[C@@H](NC(=O)[C@H](CC(=O)O)NC(=O)[C@H](CC(C)C)NC(=O)[C@H](CC(C)C)NC(=O)[C@H](CC(C)C)NC(=O)[C@H](CCCN=C(N)N)NC(=O)[C@H](CC(N)=O)NC(=O)[C@H](CC(N)=O)NC(=O)[C@H](C)NC(=O)[C@H](C)NC(=O)[C@H](CCC(N)=O)NC(=O)[C@H](CCC(N)=O)NC(=O)[C@H](CCCCN)NC(=O)[C@H](CCC(=O)O)NC(=O)[C@H](CCCCN)NC(=O)[C@H](CCC(=O)O)NC(=O)[C@H](CCC(N)=O)NC(=O)[C@H](CCCCN)NC(=O)[C@H](CCC(=O)O)NC(=O)[C@@H](NC(=O)[C@H](CCC(=O)O)NC(=O)[C@@H](NC(=O)[C@H](CCSC)NC(=O)[C@H](CCCCN)NC(=O)[C@H](CCCN=C(N)N)NC(=O)[C@H](CC(C)C)NC(=O)[C@H](CC(C)C)NC(=O)[C@@H](NC(=O)[C@H](CCC(N)=O)NC(=O)[C@@H]1CCCN1C(=O)[C@H](CC(C)C)NC(=O)[C@H](CC(=O)O)NC(=O)[C@@H](NC(=O)[C@H](CO)NC(=O)[C@@H](NC(=O)[C@@H]1CCCN1C(=O)[C@@H]1CCCN1C(=O)CNC(=O)[C@@H]1CCC(=O)N1)[C@@H](C)CC)[C@@H](C)CC)[C@@H](C)CC)[C@@H](C)CC)[C@@H](C)CC)[C@@H](C)O)C(=O)O`, in assay [1], the inhibition in vivo at 0.01 mg/kg/day worked out at 32%. This compound returned an inhibition in vivo at 0.03 mg/kg/day in assay [2] of 14%. For the same compound, the inhibition in vivo at 0.1 mg/kg/day in assay [3] was found to be 73%. Besides, the Emax in assay [6] and in assay [7] was 93% throughout. Also, in assay [8], the Selectivity stood at 83.

In turn, `CC[C@H](C)[C@H](NC(=O)[C@@H](NC(=O)[C@H](CC(=O)O)NC(=O)[C@H](CC(C)C)NC(=O)[C@H](CC(C)C)NC(=O)[C@H](CC(C)C)NC(=O)[C@H](CCCN=C(N)N)NC(=O)[C@H](CC(N)=O)NC(=O)[C@H](CC(N)=O)NC(=O)[C@H](C)NC(=O)[C@H](C)NC(=O)[C@H](CCC(N)=O)NC(=O)[C@H](CCC(N)=O)NC(=O)[C@H](CCCCN)NC(=O)[C@H](CCC(=O)O)NC(=O)[C@H](CCCCN)NC(=O)[C@H](CCC(=O)O)NC(=O)[C@H](CCC(N)=O)NC(=O)[C@H](CCCCN)NC(=O)[C@H](CCC(=O)O)NC(=O)[C@@H](NC(=O)[C@H](CCC(=O)O)NC(=O)[C@@H](NC(=O)[C@H](CCSC)NC(=O)[C@H](CCCCN)NC(=O)[C@H](CCCN=C(N)N)NC(=O)[C@H](CC(C)C)NC(=O)[C@H](CC(C)C)NC(=O)[C@H](Cc1c[nH]c2ccccc12)NC(=O)[C@@H](NC(=O)[C@@H]1CCCN1C(=O)[C@H](CC(C)C)NC(=O)[C@H](CC(=O)O)NC(=O)[C@@H](NC(=O)[C@H](CO)NC(=O)[C@@H](NC(=O)[C@@H]1CCCN1C(=O)[C@@H]1CCCN1C(=O)CNC(=O)[C@@H]1CCC(=O)N1)[C@@H](C)CC)[C@@H](C)CC)[C@@H](C)O)[C@@H](C)CC)[C@@H](C)CC)[C@@H](C)O)C(=O)O` displayed an inhibition in vivo at 0.01 mg/kg/day in assay [1] of 30%. In assay [2], this compound displayed an inhibition in vivo at 0.03 mg/kg/day of 84%. The compound further registered an inhibition in vivo at 0.1 mg/kg/day in assay [3] of 91%. For the same compound, the figures for the EC50 in assay [4] and in assay [5] were over 1 µM and 0.0152 µM, respectively. Moreover, the Emax in assay [6] came out at 43%; in assay [7], 100%. In addition, the Selectivity in assay [8] is over 66.

As to `CC[C@H](C)[C@H](NC(=O)[C@@H](NC(=O)[C@H](CC(=O)O)NC(=O)[C@H](CC(C)C)NC(=O)[C@H](CC(C)C)NC(=O)[C@H](CC(C)C)NC(=O)[C@H](CCCN=C(N)N)NC(=O)[C@H](CC(N)=O)NC(=O)[C@H](CC(N)=O)NC(=O)[C@H](C)NC(=O)[C@H](C)NC(=O)[C@H](CCC(N)=O)NC(=O)[C@H](CCC(N)=O)NC(=O)[C@H](CCCCN)NC(=O)[C@H](CCC(=O)O)NC(=O)[C@H](CCCCN)NC(=O)[C@H](CCC(=O)O)NC(=O)[C@H](CCC(N)=O)NC(=O)[C@H](CCCCN)NC(=O)[C@H](CCC(=O)O)NC(=O)[C@@H](NC(=O)[C@H](CCC(=O)O)NC(=O)[C@@H](NC(=O)[C@H](CCSC)NC(=O)[C@H](CCCCN)NC(=O)[C@H](CCCN=C(N)N)NC(=O)[C@H](CC(C)C)NC(=O)[C@H](CC(C)C)NC(=O)[C@H](Cc1c[nH]cn1)NC(=O)[C@H](CC(C)C)NC(=O)[C@@H]1CCCN1C(=O)[C@H](CC(C)C)NC(=O)[C@H](CC(=O)O)NC(=O)[C@@H](NC(=O)[C@H](CO)NC(=O)[C@@H](NC(=O)[C@@H]1CCCN1C(=O)[C@@H]1CCCN1C(=O)CNC(=O)[C@@H]1CCC(=O)N1)[C@@H](C)CC)[C@@H](C)CC)[C@@H](C)CC)[C@@H](C)CC)[C@@H](C)O)C(=O)O`, the EC50 in assay [4] is 0.0522 µM; in assay [5] it was 0.0019 µM. For the same compound, the Emax in assay [6] is 96%; in assay [7], 81%. The Selectivity in assay [8] is 28.
